The results in this text go back to patent US20260240860A1, “COMPOSITION FOR REJUVENATION OF SENESCENT CELLS OR DELAY OR PREVENTION OF CELLULAR SENESCENCE” (LONO JAEYAK INC., priority 2022, published 2026).

The test system of this assay is senescent human skin fibroblasts collected from newborn skin. Nature of the assay: Experiment to confirm cell division (Hoechst assay). In kind it is cell-based. Conditions: for cell division results when the named compound replaced KU60019 (ATM kinase inhibitor) or ABT263 (Bcl-2 inhibitor) in the combinations: FIGS. 8 to 10; for cell rejuvenation effect of the five-component combination with the named compound as ATM kinase inhibitor or Bcl-2 inhibitor: FIGS. 24 and 25, ATM kinase inhibitor+ROCK inhibitor+Bcl-2 inhibitor+SIRT1 activator+AMPK activator treated together. How it is done: The human dermal fibroblasts used in the experiment were samples collected from newborn skin (PCS-201-010; ATCC), and the cells were cultured in a culture solution of DMEM [25 mM glucose, 10% FBS (S001-01; Welgene), 100 units/ml penicillin, 10 μg/ml streptomycin, and 25 ng/ml amphotericin B (LS203-01; Welgene)] under the conditions of 37° C. and 5% CO2.
After the 48th passage, ½ of the cells were cultured. When the population doubling time (DT) exceeded 14 days and the senescence-associated β-galactosidase (SA-β) ratio exceeded 95%, experiments were conducted by considering the cells as sufficiently aged.
The cell division ability of the senescent cells treated with the compounds in the above examples and comparative examples was investigated.
The cells to be used in the experiment were transplanted into a plate three days before the experiment. The cells treated with the compounds were stained with 10 μg/ml Hoechst 33342 for 30 minutes and washed twice with phosphate-buffered saline (PBS), and the amount of the cells was quantified using a plate reader (FLUOstar Omega) at wavelengths of ex/em: 355/460 nm.
FIGS. 1 to 10 show the experimental results for each example and comparative example in which human skin fibroblasts collected from newborn skin were used as senescent cells.
An additional experiment was conducted using the same method as Experimental Example 1, but with a greater variety of concentrations of the treated substances.

For the compound `CN(C)CC[C@H](CSc1ccccc1)Nc1ccc(S(=O)(=O)NC(=O)c2ccc(N3CCN(Cc4ccccc4-c4ccc(Cl)cc4)CC3)cc2)cc1[N+](=O)[O-]` [ABT737], the “cell division results when the named compound replaced KU60019 (ATM kinase inhibitor) or ABT263 (Bcl-2 inhibitor) in the combinations” value is recorded as “the results showed the same pattern”.
Take `CNC(=O)c1ccc(-c2cnc3cnc(-c4ccccc4)cn23)cc1` [AZ32]: the “cell division results when the named compound replaced KU60019 (ATM kinase inhibitor) or ABT263 (Bcl-2 inhibitor) in the combinations” value is recorded as “the results showed the same pattern” and the “cell rejuvenation effect of the five-component combination with the named compound as ATM kinase inhibitor or Bcl-2 inhibitor” value is listed as “excellent cell rejuvenation effect”.
Turning to `C/C1=C\CCC2=C[C@@H](OC2=O)c2c(C)coc2C1` [linderalactone], the “cell division results when the named compound replaced KU60019 (ATM kinase inhibitor) or ABT263 (Bcl-2 inhibitor) in the combinations” value is “the results showed the same pattern” and the “cell rejuvenation effect of the five-component combination with the named compound as ATM kinase inhibitor or Bcl-2 inhibitor” value is on record as “excellent cell rejuvenation effect”.
